The structures appear in SMILES notation. *1 amine or outer side, *2 acyl side, *3 side chain or, on linkers, in order; H or OH if unused. Where a SMILES comes first, the peptide text is derived from it. Bridges are numbered along the chain shown (N, C = ends). [ ]: non-standard residue; d: D form. Acbc(trans-1,3) = O=C([C@H]1C[C@H](N[*:1])C1)[*:2]; Acbc(cis-1,3) = O=C([C@H]1C[C@@H](N[*:1])C1)[*:2]; X1 = O=C([C@@H]1CCC[C@@H]1N[*:1])[*:2]; Orn = NCCC[C@H](N)C(=O)O

One data set concerns the target T1, Fc-tagged human IFNGR1 (Homo sapiens, UniProt P15260).
T1 construct: purchased ACROBiosystems
T1 sequence (P15260 18-489): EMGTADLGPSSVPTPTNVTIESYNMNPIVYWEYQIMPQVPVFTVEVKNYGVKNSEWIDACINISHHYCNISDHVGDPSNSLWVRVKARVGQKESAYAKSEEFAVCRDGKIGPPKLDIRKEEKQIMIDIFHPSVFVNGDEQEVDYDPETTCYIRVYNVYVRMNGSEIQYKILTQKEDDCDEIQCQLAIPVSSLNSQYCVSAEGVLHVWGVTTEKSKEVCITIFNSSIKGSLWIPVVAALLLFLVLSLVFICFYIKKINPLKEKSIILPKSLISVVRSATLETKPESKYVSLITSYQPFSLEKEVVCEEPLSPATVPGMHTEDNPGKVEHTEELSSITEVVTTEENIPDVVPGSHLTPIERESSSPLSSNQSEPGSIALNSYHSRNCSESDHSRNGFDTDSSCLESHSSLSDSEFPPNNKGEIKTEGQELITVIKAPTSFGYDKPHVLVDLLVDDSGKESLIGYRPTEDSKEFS
Description: Binding kinetics and affinity to IFNGR1 by surface plasmon resonance (SPR). As to conditions: SPR, 25 °C, 1:1 binding model; for Kd: read-out: KD; for kon: single-cycle kinetics, read-out: ka. The essentials: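 Fc-tagged IFNGR1 captured on a protein G chip (1,200–1,600 RU), 25 °C, running buffer 10 mM Tris-HCl pH 8.0, 150 mM NaCl, 0.05% Tween 20, 0.1% DMSO. Single-cycle kinetics with five twofold-diluted peptide concentrations at 30 μL/min. Sensorgrams fitted to a 1:1 binding model for kinetic constants and affinity.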
(In general: SPR reads the build-up and loss of mass on a sensor chip optically.)

Data set [1] concerns the target T2, IFN-γ/IFNGR1 protein–protein interaction (Homo sapiens, UniProt P15260).
T2 construct: purchased ACROBiosystems
T2 sequence (P15260 18-245 limits assumed): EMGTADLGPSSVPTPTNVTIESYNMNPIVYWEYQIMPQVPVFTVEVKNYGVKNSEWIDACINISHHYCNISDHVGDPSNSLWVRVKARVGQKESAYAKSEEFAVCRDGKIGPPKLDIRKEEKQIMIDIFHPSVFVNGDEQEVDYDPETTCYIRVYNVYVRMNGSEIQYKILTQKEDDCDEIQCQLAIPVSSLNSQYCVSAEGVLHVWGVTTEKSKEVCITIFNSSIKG
Description: IFNGR1 inhibition assay using AlphaLISA. In kind it is biochemical. As to conditions: four-parameter dose–response fit, n = 3. The protocol: IFNGR1 inhibition assay using AlphaLISA
The inhibitory activity of peptides against IFN-γ/IFNGR1 protein–protein interaction (PPI) was determined by AlphaLISA.5 Peptides, proteins, and beads were diluted in AlphaLISA immunoassay buffer (PerkinElmer, AL000C). 3.6 μL of 5 nM Fc-tagged IFNGR1 and 3.6 μL of synthetic peptides were mixed in AlphaPlate-384 Shallow Well (PerkinElmer) and preincubated at 25 °C for 10 min. 3.6 μL of 15 nM biotin-tagged IFN-γ was then added to the mix and incubated at 25 °C for 20 min. 3.6 μL each human IgG acceptor beads (PerkinElmer) and streptavidin donor beads (PerkinElmer) were added to the above mix and incubated at 25 °C for 30 min in dark place. Emission at 615 nm was measured […]
by EnSpire Multimode Plate Reader (PerkinElmer). The fraction of bound IFN-γ/IFNGR1 was calculated by the intensity of emission in the presence of peptide divided by that in the absence of […]
peptide. […]
Puromycin. Normocin, Blasticidin, Zeocin, and Puromycin were excluded when conducting the experiments. To evaluate the cellular activity of peptides, peptide mixtures were added to 50,000 cells/well in a flat-bottom 96-well plate and pre-incubated for 30 min at 37 °C before stimulation.
Subsequently, 1 ng/mL of recombinant IFN-γ (InvivoGen) was added to each well in a final reaction volume of 200 μL, followed by incubation for 20 h at 37 °C. 20 μL of supernatants from the induced cells was added to 180 μL Q U A N T I-Blue TM solution (InvivoGen). After further incubation for 3 h at 37 °C, the expression levels of the secreted embryonic alkaline phosphatase (SEAP) were determined by reading the O.D. at 650 nm on a Tecan M1000 PRO microplate reader (Tecan Group) and normalized to the non-treated well. IC50 value was analyzed by a normalized dose-response curve fitting by using GraphPad Prism 9.
HEK-DualTM IFN-γ cells were used for the cell viability assay. 10,000 cells/well were added to each well in a flat-bottom 96-well plate. After 24 h, peptide mixtures were added to each well in a final volume of 100 μL. After further incubation for 24 h, 10 μL CCK-8 reagent (Dojindo) was added to […]
(In general: Alpha assays give light when donor and acceptor beads are brought close together.)

Data set [2] in a line: Serum stability assay (LC/MS). The data set is classed as in vitro ADME, human. As to conditions: human serum, 37 °C, LC/MS, relative to internal standard peptide, n = 3; for half-life: human, read-out: half-life in human serum (t1/2) (converted). The protocol: Binding affinities of IA1 and IA2 against IFNGR1 were evaluated by surface plasmon resonance (SPR) (Table 1 and SI Figure S6A). […] To investigate the contribution of the N-terminal [yVPβ^1RR] motif and β^1 residue in IA1, three scrambled peptides IA1s1–3 and a variant IA1β^14A were synthesized and evaluated. […] We next evaluated inhibitory activities of IA1 and IA2 against the ligand–receptor PPI between IFN-γ and IFNGR1 using AlphaLISA (Table 1 and SI Figure S7).[37] […] We also determined the serum half-lives of IA1 and IA2, considering peptidase resistance as an important factor for therapeutic peptides.[24] A sample peptide and a peptidase-resistant internal standard peptide were coincubated in human serum at 37 °C, and the relative amount of the remaining sample peptide was estimated by LC/MS. […]
10–200 μM synthetic peptide and 5 μM serum-resistant internal standard peptide consisting only of D-amino acids (NH2-PEG5-wstndwstnd-PEG5-CONH2)3 were mixed and incubated in human serum (Cosmo Bio, 12181201) at 37 °C for up to 120 h. At each time point, 4 μL of the mixture was removed and quenched by adding 12 μl methanol. Following centrifugation (15,000 g, 4 °C, 5 min), 10 μL of the supernatant was mixed with 40 μl of 1% (v/v) TFA. Following centrifugation (15,000 g, 4 °C, 5 min), the supernatant was collected for LC/MS analysis, which used a reverse-phase column (ACQUITY UPLC BEH C18, 1.7 μm, 2.1 × 150 mm; Waters) and a Xevo G2-XS QTof system (Waters) with a linear gradient from 1% B to 61% B. Buffer A was water with 0.1% (v/v) formic acid; buffer B was acetonitrile with 0.1% (v/v) formic acid. The percentages of remaining peptides were determined by the peak area integration of the chromatograms. For tandem mass spectrometry, MS/MS spectra were acquired with a 0.2 s scan time, with 10−30 eV collision energy. The obtained LC/MS data was analyzed using MassLynx 4.1 (Waters). […]

Another data set concerns HEK-Dual IFN-γ cells. Description: Cell viability assay (CCK-8). As to conditions: up to 50 μM, 24 h incubation.

As for `CC(C)[C@@H]1NC(=O)[C@@H](Cc2ccc(O)cc2)NC(=O)CSC[C@H](C(N)=O)NC(=O)[C@H](CC(N)=O)NC(=O)[C@H]2C[C@@H](C2)NC(=O)[C@H](CCCNC(=N)N)NC(=O)[C@@H]2CCCN2C(=O)[C@H]([C@@H](C)O)NC(=O)[C@H](CCCNC(=N)N)NC(=O)[C@H](CCCNC(=N)N)NC(=O)[C@H](CO)NC(=O)[C@H](CCCNC(=N)N)NC(=O)[C@H](CCCNC(=N)N)NC(=O)[C@@H]2CCC[C@@H]2NC(=O)[C@@H]2CCCN2C1=O` [IB4, ^AcyVPβ^1RRSRRTPRγ^2Nc-NH2] ({CH2CO}-[dY]VP[X1]RRSRRTPR[Acbc(trans-1,3)]N[dC]-NH2; thioether N-15), at Fc-tagged human IFNGR1, the Kd (in general, the constant that tells how readily two partners part at equilibrium) worked out at 22 ± 11 nM and the kon was 160000 ± 190000 M⁻¹ s⁻¹. Besides, in data set [1], the IC50 – broadly, the concentration needed to halve the response being measured – stood at 47 ± 15 nM. In addition, in data set [2], the “half-life in human serum (t1/2)” value came to 1.1 ± 0.0 h and the half-life was less than 1.3 h.

For `CC(C)[C@@H]1NC(=O)[C@@H](Cc2ccc(O)cc2)NC(=O)CSC[C@H](C(N)=O)NC(=O)[C@H](CC(N)=O)NC(=O)[C@H](C)NC(=O)[C@H](CCCNC(=N)N)NC(=O)[C@@H]2CCCN2C(=O)[C@H]([C@@H](C)O)NC(=O)[C@H](CCCNC(=N)N)NC(=O)[C@H](CCCNC(=N)N)NC(=O)[C@H](CO)NC(=O)[C@H](CCCNC(=N)N)NC(=O)[C@H](CCCNC(=N)N)NC(=O)[C@@H]2CCC[C@@H]2NC(=O)[C@@H]2CCCN2C1=O` [IB4γ^213A, ^AcyVPβ^1RRSRRTPRA Nc-NH2] ({CH2CO}-[dY]VP[X1]RRSRRTPRAN[dC]-NH2; thioether N-15), at Fc-tagged human IFNGR1, the Kd is 8.2 ± 1.4 nM and the kon is 790000 ± 330000 M⁻¹ s⁻¹. For the same molecule, the midpoint of inhibition in data set [1], the IC50, lay at 7.8 ± 1.6 nM. In data set [2], the half-life was 0.46 ± 0.05 h.

Consider `CC(C)[C@@H]1NC(=O)[C@@H](Cc2ccc(O)cc2)NC(=O)CSC[C@H](C(N)=O)NC(=O)[C@H](CC(N)=O)NC(=O)[C@H]2C[C@H](C2)NC(=O)[C@H](CCCNC(=N)N)NC(=O)[C@@H]2CCCN2C(=O)[C@H]([C@@H](C)O)NC(=O)[C@H](CCCNC(=N)N)NC(=O)[C@H](CCCNC(=N)N)NC(=O)[C@H](CO)NC(=O)[C@H](CCCNC(=N)N)NC(=O)[C@H](CCCNC(=N)N)NC(=O)[C@@H]2CCC[C@@H]2NC(=O)[C@@H]2CCCN2C1=O` [IB4γ^213γ^1, ^AcyVPβ^1RRSRRTPRγ^1Nc-NH2] ({CH2CO}-[dY]VP[X1]RRSRRTPR[Acbc(cis-1,3)]N[dC]-NH2; thioether N-15), for which, on Fc-tagged human IFNGR1, the Kd was determined as 6.1 ± 2.2 nM and the kon amounted to 210000 ± 70000 M⁻¹ s⁻¹. Further, the IC50 in data set [1] was 10 ± 1 nM. In addition, in data set [2], the “half-life in human serum (t1/2)” value was 0.71 ± 0.04 h and the half-life was 0.37 h.

As for `CC(C)[C@@H]1NC(=O)[C@@H](Cc2ccc(O)cc2)NC(=O)CSC[C@H](C(N)=O)NC(=O)[C@H](CC(N)=O)NC(=O)[C@H]2C[C@H](C2)NC(=O)[C@H](CCCN)NC(=O)[C@@H]2CCCN2C(=O)[C@H]([C@@H](C)O)NC(=O)[C@H](CCCN)NC(=O)[C@H](CCCN)NC(=O)[C@H](CO)NC(=O)[C@H](CCCNC(=N)N)NC(=O)[C@H](CCCNC(=N)N)NC(=O)[C@@H]2CCC[C@@H]2NC(=O)[C@@H]2CCCN2C1=O` [IB4γ^213γ^1Orn, ^AcyVPβ^1RRSOOTPOγ^1Nc-NH2] ({CH2CO}-[dY]VP[X1]RRS[Orn][Orn]TP[Orn][Acbc(cis-1,3)]N[dC]-NH2; thioether N-15), on Fc-tagged human IFNGR1, the Kd was determined as 12 ± 1 nM and the kon was found to be 4.7e+06 ± 600000 M⁻¹ s⁻¹. In the data set on HEK-Dual IFN-γ cells, the cytotoxicity result is reported as “none of them exhibited notable cytotoxicity up to 50 μM”. Also, the IC50 in data set [1] was found to be 15 ± 5 nM. Further, the half-life in data set [2] is 49 ± 4 h.

For the molecule `CC(C)[C@@H]1NC(=O)[C@@H](Cc2ccc(O)cc2)NC(=O)CSC[C@H](C(N)=O)NC(=O)[C@H](CC(N)=O)NC(=O)[C@H](Cc2c[nH]cn2)NC(=O)[C@H](CCCNC(=N)N)NC(=O)[C@H](C)NC(=O)[C@H]([C@@H](C)O)NC(=O)[C@H](Cc2c[nH]cn2)NC(=O)[C@@H]2CCCN2C(=O)[C@H](CO)NC(=O)[C@H](CCCNC(=N)N)NC(=O)[C@H](CCCNC(=N)N)NC(=O)[C@@H]2CCC[C@@H]2NC(=O)[C@@H]2CCCN2C1=O` [IB5γ^211A, ^AcyVPβ^1RRSPHTA RHNc-NH2] ({CH2CO}-[dY]VP[X1]RRSPHTARHN[dC]-NH2; thioether N-15), on Fc-tagged human IFNGR1, the Kd amounted to 28 ± 6 nM and the kon worked out at 92000 ± 27000 M⁻¹ s⁻¹. For the same molecule, in data set [1], the IC50 is 14 ± 1 nM. Moreover, the half-life in data set [2] is 1.8 ± 0.6 h.

For the molecule `CC(C)[C@@H]1NC(=O)[C@@H](Cc2ccc(O)cc2)NC(=O)CSC[C@H](C(N)=O)NC(=O)[C@H](CC(N)=O)NC(=O)[C@H](Cc2c[nH]cn2)NC(=O)[C@H](CCCNC(=N)N)NC(=O)[C@H]2C[C@H](C2)NC(=O)[C@H]([C@@H](C)O)NC(=O)[C@H](Cc2c[nH]cn2)NC(=O)[C@@H]2CCCN2C(=O)[C@H](CO)NC(=O)[C@H](CCCNC(=N)N)NC(=O)[C@H](CCCNC(=N)N)NC(=O)[C@@H]2CCC[C@@H]2NC(=O)[C@@H]2CCCN2C1=O` [IB5γ^211γ^1, ^AcyVPβ^1RRSPHTγ^1RHNc-NH2] ({CH2CO}-[dY]VP[X1]RRSPHT[Acbc(cis-1,3)]RHN[dC]-NH2; thioether N-15), on Fc-tagged human IFNGR1, the Kd turned out to be 17 ± 5 nM and the kon was 320000 ± 50000 M⁻¹ s⁻¹. Further, the cytotoxicity result in the data set on HEK-Dual IFN-γ cells is “none of them exhibited notable cytotoxicity up to 50 μM”. Also, the midpoint of inhibition in data set [1], the IC50, lay at 27 ± 4 nM. In data set [2], the half-life was 34 ± 2 h.

Source of the values: publication PMC11229689, “In Vitro Selection of Macrocyclic L-α/D-α/β/γ-Hybrid Peptides Targeting IFN-γ/IFNGR1 Protein–Protein Interaction” (Journal of the American Chemical Society, 2024).
